Test [1] deals with T1, Corticotropin-releasing factor receptor 2 (Homo sapiens, UniProt Q13324).
T1 sequence (Q13324 whole entry): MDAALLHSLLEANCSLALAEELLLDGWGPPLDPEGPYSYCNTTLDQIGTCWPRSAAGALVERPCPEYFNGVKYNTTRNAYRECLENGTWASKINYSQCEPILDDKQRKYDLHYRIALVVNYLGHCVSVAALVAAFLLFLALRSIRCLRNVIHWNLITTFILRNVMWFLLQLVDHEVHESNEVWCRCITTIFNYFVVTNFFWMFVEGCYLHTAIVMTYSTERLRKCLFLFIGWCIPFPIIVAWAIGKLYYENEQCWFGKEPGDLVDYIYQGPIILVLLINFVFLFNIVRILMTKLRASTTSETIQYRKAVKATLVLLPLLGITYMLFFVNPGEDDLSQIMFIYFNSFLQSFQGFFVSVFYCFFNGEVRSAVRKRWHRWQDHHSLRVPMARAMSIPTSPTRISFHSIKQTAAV

Test [2] concerns the target Voltage-dependent N-type calcium channel subunit alpha-1B (Rattus norvegicus, UniProt Q02294). The class given is functional.
The target of test [3] is Glucagon receptor (Homo sapiens, UniProt P47871).
For test [4], the target named is T2, Corticotropin-releasing factor receptor 1 (Homo sapiens, UniProt P34998).
T2 sequence (P34998 whole entry): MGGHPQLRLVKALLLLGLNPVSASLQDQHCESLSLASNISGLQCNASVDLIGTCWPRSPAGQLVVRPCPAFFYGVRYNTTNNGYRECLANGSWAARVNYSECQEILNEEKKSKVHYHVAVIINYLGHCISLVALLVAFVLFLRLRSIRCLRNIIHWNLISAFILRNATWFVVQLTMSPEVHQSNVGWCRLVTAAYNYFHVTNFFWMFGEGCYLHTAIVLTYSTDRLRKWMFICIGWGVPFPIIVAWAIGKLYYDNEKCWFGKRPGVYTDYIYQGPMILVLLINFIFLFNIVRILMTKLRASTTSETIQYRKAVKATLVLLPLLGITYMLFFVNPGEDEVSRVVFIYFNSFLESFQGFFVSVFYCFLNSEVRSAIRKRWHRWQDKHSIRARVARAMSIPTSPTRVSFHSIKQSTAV

Test [5] concerns the target T3, Endothelin receptor type B (Homo sapiens, UniProt P24530).
T3 sequence (P24530 whole entry): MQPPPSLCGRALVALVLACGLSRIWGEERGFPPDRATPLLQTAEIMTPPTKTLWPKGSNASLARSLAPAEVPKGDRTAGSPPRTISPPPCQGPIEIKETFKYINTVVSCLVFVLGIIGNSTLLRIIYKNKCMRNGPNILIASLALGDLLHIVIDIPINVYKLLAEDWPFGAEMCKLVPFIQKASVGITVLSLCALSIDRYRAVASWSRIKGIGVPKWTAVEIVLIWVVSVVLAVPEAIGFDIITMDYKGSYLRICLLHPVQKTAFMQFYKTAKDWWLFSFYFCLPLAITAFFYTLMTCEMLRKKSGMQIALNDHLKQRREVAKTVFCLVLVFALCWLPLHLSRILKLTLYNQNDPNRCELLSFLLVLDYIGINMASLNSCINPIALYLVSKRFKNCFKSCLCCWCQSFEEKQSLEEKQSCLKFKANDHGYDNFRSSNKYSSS

The target of test [6] is T4, 5-hydroxytryptamine receptor 1A (Homo sapiens, UniProt P08908).
T4 sequence (P08908 whole entry): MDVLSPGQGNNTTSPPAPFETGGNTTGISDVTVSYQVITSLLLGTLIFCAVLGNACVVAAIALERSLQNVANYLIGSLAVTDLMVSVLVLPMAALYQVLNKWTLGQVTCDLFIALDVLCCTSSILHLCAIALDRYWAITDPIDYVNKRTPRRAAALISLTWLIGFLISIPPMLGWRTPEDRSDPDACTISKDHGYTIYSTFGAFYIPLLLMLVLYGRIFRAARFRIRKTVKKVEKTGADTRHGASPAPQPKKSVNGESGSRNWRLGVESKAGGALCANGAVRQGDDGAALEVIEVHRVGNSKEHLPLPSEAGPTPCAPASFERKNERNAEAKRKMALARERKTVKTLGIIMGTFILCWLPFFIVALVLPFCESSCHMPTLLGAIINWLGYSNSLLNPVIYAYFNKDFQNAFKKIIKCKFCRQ

Test [7] concerns the target T5, Neuropeptide Y receptor type 2 (Homo sapiens, UniProt P49146).
T5 sequence (P49146 whole entry): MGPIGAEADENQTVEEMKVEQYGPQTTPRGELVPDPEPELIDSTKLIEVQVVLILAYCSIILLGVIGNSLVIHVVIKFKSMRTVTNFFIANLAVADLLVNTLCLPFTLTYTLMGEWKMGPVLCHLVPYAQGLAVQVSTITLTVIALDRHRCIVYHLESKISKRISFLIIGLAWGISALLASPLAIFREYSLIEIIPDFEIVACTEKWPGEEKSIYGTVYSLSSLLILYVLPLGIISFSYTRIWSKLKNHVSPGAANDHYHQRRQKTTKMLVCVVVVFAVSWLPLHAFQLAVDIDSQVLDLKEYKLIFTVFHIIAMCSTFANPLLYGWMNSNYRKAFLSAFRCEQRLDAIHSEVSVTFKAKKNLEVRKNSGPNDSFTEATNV

Molecules are shown by their SMILES.

The term AC50 denotes the concentration at which the activity in the assay is half-maximal.
Also: assay procedure not described here.

Chain of Voltage-dependent N-type calcium channel subunit alpha-1B (Q02294 whole entry): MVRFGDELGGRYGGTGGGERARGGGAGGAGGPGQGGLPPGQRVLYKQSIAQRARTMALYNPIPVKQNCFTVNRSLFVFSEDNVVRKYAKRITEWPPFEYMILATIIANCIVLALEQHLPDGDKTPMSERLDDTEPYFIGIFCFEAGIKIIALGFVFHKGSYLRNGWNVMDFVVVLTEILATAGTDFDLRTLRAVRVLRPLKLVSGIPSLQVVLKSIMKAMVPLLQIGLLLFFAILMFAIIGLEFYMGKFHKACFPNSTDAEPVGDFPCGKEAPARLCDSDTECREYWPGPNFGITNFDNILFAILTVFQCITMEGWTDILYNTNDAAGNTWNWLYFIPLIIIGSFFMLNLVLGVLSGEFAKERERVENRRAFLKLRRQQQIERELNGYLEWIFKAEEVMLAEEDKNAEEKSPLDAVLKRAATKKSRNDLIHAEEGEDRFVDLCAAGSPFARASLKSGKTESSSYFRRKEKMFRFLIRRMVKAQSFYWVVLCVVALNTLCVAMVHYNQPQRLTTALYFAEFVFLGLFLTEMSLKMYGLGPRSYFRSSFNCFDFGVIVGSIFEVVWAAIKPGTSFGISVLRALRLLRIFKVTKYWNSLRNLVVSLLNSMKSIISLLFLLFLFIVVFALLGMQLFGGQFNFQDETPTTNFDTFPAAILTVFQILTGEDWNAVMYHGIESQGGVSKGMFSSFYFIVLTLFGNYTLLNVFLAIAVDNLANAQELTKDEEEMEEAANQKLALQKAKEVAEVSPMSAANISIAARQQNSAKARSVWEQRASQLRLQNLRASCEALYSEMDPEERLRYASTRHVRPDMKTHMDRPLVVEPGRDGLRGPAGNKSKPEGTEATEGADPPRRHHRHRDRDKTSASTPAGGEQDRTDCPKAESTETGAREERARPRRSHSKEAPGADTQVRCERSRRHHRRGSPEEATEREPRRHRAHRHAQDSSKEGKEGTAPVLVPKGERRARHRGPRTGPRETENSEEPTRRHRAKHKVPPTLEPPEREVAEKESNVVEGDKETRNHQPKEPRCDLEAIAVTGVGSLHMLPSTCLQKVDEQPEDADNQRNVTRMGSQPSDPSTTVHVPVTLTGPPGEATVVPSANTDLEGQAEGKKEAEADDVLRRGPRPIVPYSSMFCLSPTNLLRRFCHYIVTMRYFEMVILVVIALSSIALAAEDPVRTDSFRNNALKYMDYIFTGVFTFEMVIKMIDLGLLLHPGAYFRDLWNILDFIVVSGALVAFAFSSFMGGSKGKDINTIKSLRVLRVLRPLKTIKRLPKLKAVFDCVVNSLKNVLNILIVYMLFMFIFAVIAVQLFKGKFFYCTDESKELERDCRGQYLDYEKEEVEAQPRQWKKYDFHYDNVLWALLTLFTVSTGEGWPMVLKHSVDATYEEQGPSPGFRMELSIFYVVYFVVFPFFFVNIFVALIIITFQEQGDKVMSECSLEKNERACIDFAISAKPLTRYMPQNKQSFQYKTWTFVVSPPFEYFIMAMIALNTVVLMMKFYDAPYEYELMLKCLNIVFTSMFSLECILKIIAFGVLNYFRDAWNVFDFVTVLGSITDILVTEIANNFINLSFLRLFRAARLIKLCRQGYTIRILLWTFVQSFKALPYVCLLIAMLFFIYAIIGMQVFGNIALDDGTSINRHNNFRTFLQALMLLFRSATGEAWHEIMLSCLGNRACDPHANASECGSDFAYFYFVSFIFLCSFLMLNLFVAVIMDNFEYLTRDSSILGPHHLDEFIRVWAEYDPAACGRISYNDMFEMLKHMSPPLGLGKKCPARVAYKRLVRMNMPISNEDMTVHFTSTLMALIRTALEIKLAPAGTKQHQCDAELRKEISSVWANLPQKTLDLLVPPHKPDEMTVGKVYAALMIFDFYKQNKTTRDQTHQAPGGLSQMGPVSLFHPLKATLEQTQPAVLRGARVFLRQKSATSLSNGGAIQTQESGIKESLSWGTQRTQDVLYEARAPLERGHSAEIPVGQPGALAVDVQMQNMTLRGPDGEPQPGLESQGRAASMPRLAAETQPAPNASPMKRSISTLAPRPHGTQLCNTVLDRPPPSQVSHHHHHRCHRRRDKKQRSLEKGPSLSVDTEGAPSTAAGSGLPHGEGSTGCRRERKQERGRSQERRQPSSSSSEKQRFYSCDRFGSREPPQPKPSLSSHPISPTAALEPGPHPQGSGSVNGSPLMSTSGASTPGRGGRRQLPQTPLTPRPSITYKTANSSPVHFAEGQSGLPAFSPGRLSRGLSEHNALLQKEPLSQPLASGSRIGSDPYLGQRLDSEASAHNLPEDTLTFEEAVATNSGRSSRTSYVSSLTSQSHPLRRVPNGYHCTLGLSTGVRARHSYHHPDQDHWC
Chain of Glucagon receptor (P47871 whole entry): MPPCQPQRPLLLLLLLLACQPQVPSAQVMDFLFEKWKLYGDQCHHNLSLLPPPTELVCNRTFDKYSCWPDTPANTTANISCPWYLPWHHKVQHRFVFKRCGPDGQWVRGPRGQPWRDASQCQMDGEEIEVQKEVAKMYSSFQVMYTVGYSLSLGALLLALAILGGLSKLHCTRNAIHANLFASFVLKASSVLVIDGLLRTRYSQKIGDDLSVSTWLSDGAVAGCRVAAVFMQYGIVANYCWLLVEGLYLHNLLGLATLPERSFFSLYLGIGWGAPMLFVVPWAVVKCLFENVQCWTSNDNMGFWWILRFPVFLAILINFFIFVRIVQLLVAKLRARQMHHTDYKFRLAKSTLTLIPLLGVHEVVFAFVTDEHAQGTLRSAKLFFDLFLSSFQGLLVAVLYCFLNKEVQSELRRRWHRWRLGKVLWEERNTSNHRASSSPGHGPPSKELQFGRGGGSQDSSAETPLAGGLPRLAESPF

For the compound `O=C(Nc1ccccc1)OCC(CN1CCCCC1)OC(=O)Nc1ccccc1` (stereo not drawn) [DIPERODON], the AC50 was greater than 30 µM in test [1]; greater than 10 µM in test [2]; greater than 30 µM in test [3]; greater than 30 µM in test [4]; greater than 30 µM in test [5]; greater than 10 µM in test [6]. Further, the AC50 in test [7] was greater than 30 µM.
With `CC(=O)N(CC(O)CO)c1c(I)c(C(=O)NCC(O)CO)c(I)c(C(=O)NCC(O)CO)c1I` (stereo not drawn) [IOHEXOL], the AC50 in test [6] was greater than 10 µM.
With `CC(C)(N)Cc1ccc(Cl)cc1` [CHLORPHENTERMINE], the AC50 is greater than 30 µM in test [1]; greater than 10 µM in test [2]; greater than 30 µM in test [3]; greater than 30 µM in test [4]; greater than 30 µM in test [5]; greater than 10 µM in test [6]. Moreover, the AC50 in test [7] was greater than 30 µM.
For `O=C1CCC(N2C(=O)c3ccccc3C2=O)C(=O)N1` (stereo not drawn) [THALIDOMIDE], the AC50 in test [1] was greater than 30 µM; in test [2], greater than 10 µM; in test [3], greater than 30 µM; in test [4], greater than 30 µM; in test [5], greater than 30 µM; in test [6], greater than 10 µM. The compound also yielded an AC50 in test [7] greater than 30 µM.
In the case of `C=C1C[C@@H]2[C@H](CC[C@]3(C)C(=O)CC[C@@H]23)[C@@]2(C)C=CC(=O)C=C12` [EXEMESTANE], the half-maximal activity concentration (AC50) in test [1] is greater than 30 µM; in test [2] it was greater than 10 µM; in test [3], greater than 30 µM; in test [4] it was greater than 30 µM; in test [5], greater than 30 µM; in test [6] it was greater than 10 µM. In test [7], this compound came in with an AC50 greater than 30 µM.
Take `O=C(O)CCn1c2c(c3ccccc31)C[C@H](NS(=O)(=O)c1ccc(F)cc1)CC2` [RAMATROBAN]: the AC50 in test [3], in test [5] and in test [7] was greater than 10 µM throughout.
For `CN(C)CCCN1c2ccccc2Sc2ccccc21` [PROMAZINE], the AC50 was greater than 30 µM in test [1]; greater than 10 µM in test [2]; greater than 30 µM in test [3]; greater than 30 µM in test [4]; greater than 30 µM in test [5]; 4.37 µM in test [6]. Moreover, in test [7], the AC50 was greater than 30 µM.
In the case of `O=P(O)(O)C(O)(Cc1cccnc1)P(=O)(O)O` [RISEDRONIC ACID], the AC50 was greater than 30 µM in test [1]; greater than 10 µM in test [2]; greater than 30 µM in test [3]; greater than 30 µM in test [4]; greater than 30 µM in test [5]; greater than 10 µM in test [6]. In test [7], this compound registered an AC50 greater than 30 µM.
In the case of `O=C(O)c1cccc(-c2noc(-c3ccccc3F)n2)c1`, the AC50 in test [6] is greater than 10 µM.
As for `C[N+](C)(C)CCOC(N)=O` [CARBAMOYLCHOLINE], the AC50 in test [6] is greater than 10 µM.

(Values after ChEMBL document CHEMBL5291721, “A preclinical secondary pharmacology resource illuminates target-adverse drug reaction associations of marketed drugs” (Nat Commun, 2023).)
